Values of other authors, collected in paper PMC11676896, “Protective Action of Cannabidiol on Tiamulin Toxicity in Humans—In Vitro Study” (International Journal of Molecular Sciences, 2024).

Columns and labels:
CYP1A1 = tested on: CYP1A1; parameters: method as in PMID 26187180; conditions: cited from earlier work
[1] = parameters: method as in previous studies; conditions: CBD 1.56 and 3.125 µg/mL; ref previous studies; cited from earlier work

C=C(C)[C@@H]1CCC(C)=C[C@H]1c1c(O)cc(CCCCC)cc1O [CBD, cannabidiol]
induction of CYP1A1 expression (CYP1A1): strongest inducer of CYP1A1 expression | cell viability with CBD alone [1]: did not show a decrease in cell viability
